Results as given in patent US11254668B2, “Pyrazolo[1,5-A]pyrazin-4-yl and related derivatives” (Pfizer Inc., priority 2017, dated 2022).
Read-outs that look alike come from different tables or passages of the source.

Key:
Assay type in all cases: biochemical
TYK2 = TYK2 (Homo sapiens (Human), UniProt P29597); test: JAK Caliper Enzyme Assay at 1 mM ATP, TYK2
Experimental: (§1) Compounds of the invention were evaluated by in vitro methods to determine their respective ability to inhibit the JAK kinases (TYK2, JAK1, JAK2, JAK3).
(§2) The human JAK inhibitory activity was determined by using a microfluidic assay to monitor phosphorylation of a synthetic peptide by the recombinant human kinase domain of each of the four members of the JAK family, JAK1, JAK2, JAK3 and TYK2. […] Each assay condition was optimized for enzyme concentration and room temperature incubation time to obtain a conversion rate of 20% to 30% phosphorylated peptide product. Reactions were terminated by the addition of stop buffer containing EDTA. Utilizing the LabChip 3000 mobility shift technology (Caliper Life Science), each assay reaction was sampled to determine the level of phosphorylation. This technology is separation-based, allowing direct detection of fluorescently labeled substrates and products. Separations are controlled by a combination of vacuum pressure and electric field strength optimized for each peptide substrate.
(§3) JAK Caliper Enzyme Assay at 1mM ATP
(§4) Compounds were added to a 384-well plate.
(§5) The data was collected using the HTS Well Analyzer software from Caliper Life Sciences. The data output for data analysis is the percent product converted calculated on peak height (Equation 1). % product converted=100*((product)/(product+substrate)) Equation 1: […]
(§6) The percent effect at each compound concentration was calculated based on the positive and negative control well contained within each assay plate (Equation 2). […] The negative control wells contained DMSO alone (at the same concentration as the compound wells) that was used to set the baseline activity in the assay (i.e., uninhibited JAK1, JAK2, JAK3 or TYK2). % effect=100*([…](positive control-negative control)) Equation 2: […]
(§7) The percent effect was plotted against the compound concentration compound.

JAK1 = JAK1 (Homo sapiens (Human), UniProt P23458); test: JAK Caliper Enzyme Assay at 1 mM ATP, JAK1
Experimental: as §1, §2, §3, §4, §5, §6, §7

JAK3 = JAK3 (Homo sapiens (Human), UniProt P52333); test: JAK Caliper Enzyme Assay at 1 mM ATP, JAK3
Experimental: as §1, §2, §3, §4, §5, §6, §7

JAK2 = JAK2 (Homo sapiens (Human), UniProt O60674); test: JAK Caliper Enzyme Assay at 1 mM ATP, JAK2
Experimental: as §1, §2, §3, §4, §5, §6, §7

JAK1, sequence (P23458 875-1153): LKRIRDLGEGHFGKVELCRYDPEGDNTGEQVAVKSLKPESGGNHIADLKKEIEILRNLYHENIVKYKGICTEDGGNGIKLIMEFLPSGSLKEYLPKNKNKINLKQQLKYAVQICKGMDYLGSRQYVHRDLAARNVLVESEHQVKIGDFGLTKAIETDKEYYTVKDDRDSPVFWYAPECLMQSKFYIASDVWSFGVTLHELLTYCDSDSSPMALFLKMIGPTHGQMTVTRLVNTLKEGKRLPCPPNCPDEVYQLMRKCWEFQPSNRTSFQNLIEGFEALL
JAK3, sequence (P52333 822-1111): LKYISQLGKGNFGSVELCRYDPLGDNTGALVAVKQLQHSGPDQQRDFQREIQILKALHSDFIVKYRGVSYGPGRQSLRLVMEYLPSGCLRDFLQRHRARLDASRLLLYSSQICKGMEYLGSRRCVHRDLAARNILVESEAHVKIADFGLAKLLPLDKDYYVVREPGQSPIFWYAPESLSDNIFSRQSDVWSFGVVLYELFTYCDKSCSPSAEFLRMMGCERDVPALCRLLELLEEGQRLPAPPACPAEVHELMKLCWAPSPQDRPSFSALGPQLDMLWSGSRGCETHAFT
JAK2, sequence (O60674 849-1124): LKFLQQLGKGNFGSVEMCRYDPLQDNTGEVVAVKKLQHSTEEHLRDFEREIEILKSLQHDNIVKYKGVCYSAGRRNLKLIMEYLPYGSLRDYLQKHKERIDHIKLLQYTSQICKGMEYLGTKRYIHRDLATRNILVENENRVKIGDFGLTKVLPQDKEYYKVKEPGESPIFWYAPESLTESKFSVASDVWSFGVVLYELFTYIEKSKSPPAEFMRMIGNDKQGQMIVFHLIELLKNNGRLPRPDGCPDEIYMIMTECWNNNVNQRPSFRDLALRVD
TYK2, sequence (P29597 897-1176): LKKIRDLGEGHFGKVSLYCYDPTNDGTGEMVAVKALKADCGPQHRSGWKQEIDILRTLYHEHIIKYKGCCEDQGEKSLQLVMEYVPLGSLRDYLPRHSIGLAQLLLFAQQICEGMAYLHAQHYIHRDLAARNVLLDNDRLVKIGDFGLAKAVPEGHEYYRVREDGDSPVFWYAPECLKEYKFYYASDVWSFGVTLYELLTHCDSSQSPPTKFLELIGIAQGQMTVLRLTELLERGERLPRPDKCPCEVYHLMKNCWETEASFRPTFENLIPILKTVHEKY

Row | SMILES | IC50 (TYK2) [µM] | IC50 (JAK1) [µM] | IC50 (JAK3) [µM] | IC50 (JAK2) [µM] | IC50 (JAK1; JAK Caliper enzyme assay) [µM] | IC50 (JAK3; JAK Caliper enzyme assay) [µM] | IC50 (JAK2; JAK Caliper enzyme assay) [µM] | IC50 (TYK2; JAK Caliper enzyme assay) [µM]
1 | Cn1cc(-c2cc3ncccc3c(-c3ccn([C@]4(CC#N)C[C@H](C#N)C4)n3)n2)c(N)n1 [Example 140, cis-3-{3-[7-(3-amino-1-methyl-1H-pyrazol-4-yl)-1,6-naphthyridin-5-yl]-1H-pyrazol-1-yl}-3-(cyanomethyl)cyclobutanecarbonitrile] | 0.008 | 0.048 | 0.474 | 0.01 | – | – | – | –
2 | CS(=O)(=O)N1CC(CC#N)(n2ccc(-c3nc(-c4c[nH]nc4N)cc4ncccc34)n2)C1 [Example 93, [3-{3-[7-(3-amino-1H-pyrazol-4-yl)-1,6-naphthyridin-5-yl]-1H-pyrazol-1-yl}-1-(methylsulfonyl)azetidin-3-yl]acetonitrile] | 0.007 | 0.121 | 5.06 | 0.046 | – | – | – | –
3 | N#CC[C@]1(n2ccc(-c3nc(-c4ccnc(C(N)=O)c4)cc4ncccc34)n2)C[C@H](C#N)C1 [Example 216, 4-(5-{1-[cis-3-cyano-1-(cyanomethyl)cyclobutyl]-1H-pyrazol-3-yl}-1,6-naphthyridin-7-yl)pyridine-2-carboxamide] | 0.036 | 0.464 | > 10 | 0.117 | – | – | – | –
4 | Cc1ccc(-c2cc(-c3cnn(C4(CC#N)CN(S(C)(=O)=O)C4)n3)c3cccnc3c2)cn1 [Example 355, [3-{4-[7-(6-methylpyridin-3-yl)quinolin-5-yl]-2H-1,2,3-triazol-2-yl}-1-(methylsulfonyl)azetidin-3-yl]acetonitrile] | 0.137 | > 10 | > 10 | 1.58 | – | – | – | –
5 | N#CC[C@]1(n2ncc(-c3cc(-c4cncc(N)n4)cc4ncccc34)n2)C[C@H](C#N)C1 [Example 397, trans-3-{4-[7-(6-aminopyrazin-2-yl)quinolin-5-yl]-2H-1,2,3-triazol-2-yl}-3-(cyanomethyl)cyclobutanecarbonitrile] | – | – | – | – | > 10 | > 10 | 8.95 | –
6 | Cn1cc(-c2cc(-c3cnn([C@]4(CC#N)C[C@H](C#N)C4)n3)c3cccnc3c2)c(N)n1 [Example 332, cis-3-{4-[7-(3-amino-1-methyl-1H-pyrazol-4-yl)quinolin-5-yl]-2H-1,2,3-triazol-2-yl}-3-(cyanomethyl)cyclobutanecarbonitrile] | 0.016 | 1.69 | > 10 | – | – | – | – | –
7 | COc1nc(-c2cc3ncccc3c(-c3ccn([C@]4(CC#N)C[C@H](C#N)C4)n3)n2)ccc1N [Example 223, cis-3-{3-[7-(5-amino-6-methoxypyridin-2-yl)-1,6-naphthyridin-5-yl]-1H-pyrazol-1-yl}-3-(cyanomethyl)cyclobutanecarbonitrile] | 0.015 | 0.365 | > 10 | – | – | – | – | –
8 | N#CC[C@]1(n2ncc(-c3cc(-c4cccc(C(N)=O)n4)cc4ncccc34)n2)C[C@H](C#N)C1 [Example 350, 6-(5-{2-[cis-3-cyano-1-(cyanomethyl)cyclobutyl]-2H-1,2,3-triazol-4-yl}quinolin-7-yl)pyridine-2-carboxamide] | 0.007 | 0.097 | 2.47 | – | – | – | – | –
9 | Cn1cc(-c2cc(-c3cnn([C@]4(CC#N)C[C@@H](C#N)C4)n3)c3cccnc3c2)c(N)n1 [Example 333, trans-3-{4-[7-(3-amino-1-methyl-1H-pyrazol-4-yl)quinolin-5-yl]-2H-1,2,3-triazol-2-yl}-3-(cyanomethyl)cyclobutanecarbonitrile] | 0.031 | 5.87 | > 10 | – | – | – | – | –
10 | Cc1cc(-c2cc3ncccc3c(-c3ccn(C4(CC#N)CN(CC(F)(F)F)C4)n3)n2)n[nH]1 [Example 42, [3-{3-[7-(5-methyl-1H-pyrazol-3-yl)-1,6-naphthyridin-5-yl]-1H-pyrazol-1-yl}-1-(2,2,2-trifluoroethyl)azetidin-3-yl]acetonitrile] | 0.036 | 1.61 | > 10 | – | – | – | – | –
11 | N#CC[C@]1(n2cc(-c3nc(-c4cnn(CCO)c4)cc4ncccc34)cn2)C[C@H](C#N)C1 [Example 7, trans-3-(cyanomethyl)-3-(4-{7-[1-(2-hydroxyethyl)-1H-pyrazol-4-yl]-1,6-naphthyridin-5-yl}-1H-pyrazol-1-yl)cyclobutanecarbonitrile] | 0.089 | 0.189 | > 10 | – | – | – | – | –
12 | Cn1ncc(-c2cc(-c3cnn([C@]4(CC#N)C[C@@H](C#N)C4)n3)c3cccnc3c2)c1C(N)=O [Example 335, 4-(5-{2-[trans-3-cyano-1-(cyanomethyl)cyclobutyl]-2H-1,2,3-triazol-4-yl}quinolin-7-yl)-1-methyl-1H-pyrazole-5-carboxamide] | 5.27 | – | – | > 10 | – | – | – | –
13 | N#CCC1(n2ccc(-c3nc(-c4ccn[nH]4)cc4ncccc34)n2)CN(S(=O)(=O)C2CC2)C1 [Example 18, [1-(cyclopropylsulfonyl)-3-{3-[7-(1H-pyrazol-5-yl)-1,6-naphthyridin-5-yl]-1H-pyrazol-1-yl}azetidin-3-yl]acetonitrile] | 0.02 | 0.451 | > 10 | – | – | – | – | –
14 | N#CC[C@]1(n2ncc(-c3cc(-c4cccc(C(N)=O)n4)cc4ncccc34)n2)C[C@H](C#N)C1 [Example 349, 6-(5-{2-[trans-3-cyano-1-(cyanomethyl)cyclobutyl]-2H-1,2,3-triazol-4-yl}quinolin-7-yl)pyridine-2-carboxamide] | 0.017 | 0.738 | > 10 | – | – | – | – | –
15 | CS(=O)(=O)N1CC(CC#N)(n2ccc(-c3nc(-c4cnn(CC5(O)COC5)c4)cc4ncccc34)n2)C1 [Example 133, {3-[3-(7-{1-[(3-hydroxyoxetan-3-yl)methyl]-1H-pyrazol-4-yl}-1,6-naphthyridin-5-yl)-1H-pyrazol-1-yl]-1-(methylsulfonyl)azetidin-3-yl}acetonitrile] | 0.076 | 1.67 | > 10 | – | – | – | – | –
16 | C=C(CO)n1cc(-c2cc3ncccc3c(-c3ccn(C4(CC#N)CN(S(C)(=O)=O)C4)n3)n2)cn1 [Example 131, [3-(3-{7-[1-(3-hydroxyprop-1-en-2-yl)-1H-pyrazol-4-yl]-1,6-naphthyridin-5-yl}-1H-pyrazol-1-yl)-1-(methylsulfonyl)azetidin-3-yl]acetonitrile] | 0.251 | 1.63 | > 10 | – | – | – | – | –
17 | N#CC[C@]1(n2cc(-c3nc(-c4cnn(CCO)c4)cc4ncccc34)cn2)C[C@@H](C#N)C1 [Example 6, cis-3-(cyanomethyl)-3-(4-{7-[1-(2-hydroxyethyl)-1H-pyrazol-4-yl]-1,6-naphthyridin-5-yl}-1H-pyrazol-1-yl)cyclobutanecarbonitrile] | 0.015 | 0.021 | 1.12 | – | – | – | – | –
18 | CC(=O)N(C)[C@H]1C[C@](CC#N)(n2ccc(-c3nc(-c4cc[nH]n4)cc4ncccc34)n2)C1 [Example 34, N-[cis-3-(cyanomethyl)-3-{3-[7-(1H-pyrazol-3-yl)-1,6-naphthyridin-5-yl]-pyrazol-1-yl}cyclobutyl]-N-methylacetamide] | 0.238 | 1.7 | > 10 | – | – | – | – | –
19 | Cn1cnc(-c2cc3ncccc3c(-c3ccn(C4(CC#N)CN(CC(F)(F)F)C4)n3)n2)c1 [Example 149, [3-{3-[7-(1-methyl-1H-imidazol-4-yl)-1,6-naphthyridin-5-yl]-1H-pyrazol-1-yl}-1-(2,2,2-trifluoroethyl)azetidin-3-yl]acetonitrile] | 0.125 | > 10 | > 10 | – | – | – | – | –
20 | N#CC[C@]1(n2ncc(-c3cc(-c4cnc(N)nc4)cc4ncccc34)n2)C[C@@H](C#N)C1 [Example 394, cis-3-{4-[7-(2-aminopyrimidin-5-yl)quinolin-5-yl]-2H-1,2,3-triazol-2-yl}-3-(cyanomethyl)cyclobutanecarbonitrile] | – | – | – | – | 8.56 | > 10 | – | 1.03
21 | CS(=O)(=O)Nc1ccc(-c2cc3ncccc3c(-c3ccn([C@]4(CC#N)C[C@H](C#N)C4)n3)n2)cc1 [Example 257, N-[4-(5-{1-[trans-3-cyano-1-(cyanomethyl)cyclobutyl]-1H-pyrazol-3-yl}-1,6-naphthyridin-7-yl)phenyl]methanesulfonamide] | 0.02 | 0.11 | 6.42 | – | – | – | – | –
22 | N#CC[C@]1(n2ccc(-c3nc(-c4ccc(N)c(C(N)=O)n4)cc4ncccc34)n2)C[C@H](C#N)C1 [Example 224, 3-amino-6-(5-{1-[cis-3-cyano-1-(cyanomethyl)cyclobutyl]-1H-pyrazol-3-yl}-1,6-naphthyridin-7-yl)pyridine-2-carboxamide] | 0.045 | 1.94 | > 10 | – | – | – | – | –
23 | Cn1cc(-c2cc(-c3ccn(C4(CC#N)CN(CC(F)(F)F)C4)n3)n3ccnc3c2)cn1 [Example 472, [3-{3-[7-(1-methyl-1H-pyrazol-4-yl)imidazo[1,2-a]pyridin-5-yl]-1H-pyrazol-1-yl}-1-(2,2,2-trifluoroethyl)azetidin-3-yl]acetonitrile] | – | – | – | – | > 10 | > 10 | – | 5.67
